{"source": "paper PMC4232510", "about": "“Identification of Functionally Important Residues of the Rat P2X4 Receptor by Alanine Scanning Mutagenesis of the Dorsal Fin and Left Flipper Domains” (PLoS ONE, 2014)", "key": {"[1]": {"tested_on": "P2X3R S267A", "parameters": "method as in PMID 16120774; key: n.f.: non-functional mutants; ↑: mutant with significant increased EC50 in comparison to WT (values represent fold increase); ≈: close to WT receptor; D: affected time-constant of the desensitizing current response", "settings": "cited from earlier work"}, "[2]": {"tested_on": "P2X3R N279A", "parameters": "method as in PMID 21098022", "settings": "cited from earlier work"}, "[3]": {"target": "T1, rP2X4R I209A mutant (Rattus norvegicus, UniProt P51577, I209A)", "T1 construct": "expressed in transfected cells; host or cells: HEK293T", "T1 sequence (P51577 1-388 I209A)": "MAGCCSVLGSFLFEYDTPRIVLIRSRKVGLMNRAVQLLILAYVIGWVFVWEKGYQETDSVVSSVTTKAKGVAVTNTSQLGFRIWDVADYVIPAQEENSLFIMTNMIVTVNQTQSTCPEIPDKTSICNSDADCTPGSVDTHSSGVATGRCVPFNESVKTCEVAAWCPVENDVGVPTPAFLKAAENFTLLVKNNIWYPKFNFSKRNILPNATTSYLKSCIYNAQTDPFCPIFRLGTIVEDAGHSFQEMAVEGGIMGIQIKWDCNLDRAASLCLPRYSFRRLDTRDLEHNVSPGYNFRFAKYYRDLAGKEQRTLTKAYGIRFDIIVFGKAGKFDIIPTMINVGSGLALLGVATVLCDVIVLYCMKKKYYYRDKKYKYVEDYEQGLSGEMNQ", "assay": "whole-cell patch clamp, HEK293T cells expressing mutant", "type": "cell-based"}, "[4]": {"target": "T2, rP2X4R E285A mutant (Rattus norvegicus, UniProt P51577, E285A)", "T2 construct": "expressed in transfected cells; host or cells: HEK293T", "T2 sequence (P51577 1-388 E285A)": "T1 sequence (P51577 1-388 I209A) with A209I, E285A", "assay": "whole-cell patch clamp, HEK293T cells expressing mutant", "type": "cell-based"}, "[5]": {"tested_on": "P2X1R G288C", "parameters": "method as in PMID 17428985", "settings": "cited from earlier work"}, "[6]": {"settings": "100 µM ATP 60 s, biexponential fit"}, "[7]": {"settings": "contribution of τdes2, 100 µM ATP 60 s"}, "[8]": {"settings": "decay after removal of 1 or 3 µM ATP, 3 µM IVM"}, "[9]": {"settings": "naïve receptors, 2–5 s application"}, "[10]": {"settings": "3 µM IVM 4-6 min vs IVM-untreated"}}, "note": "Substitutions are numbered along the chain they refer to.", "data": [{"smiles": "Nc1ncnc2c1ncn2[C@@H]1O[C@H](COP(=O)(O)OP(=O)(O)OP(=O)(O)O)[C@@H](O)[C@H]1O", "note": "[ATP]", "values": [{"measurement": "change in EC50 for ATP", "setting": "[1]", "result": "S267A: ≈[59]"}, {"measurement": "fold increase of EC50 for ATP in comparison to WT", "setting": "[2]", "result": "N279A: ↑20x[4]"}, {"measurement": "τdes1", "setting": "[3]; [6]", "result": "2.1 ± 0.8", "unit": "s"}, {"measurement": "τdes2", "setting": "[3]; [6]", "result": "9.3 ± 2.6", "unit": "s"}, {"measurement": "Imax", "setting": "[3]; 100–1000 µM ATP", "result": "1.9 ± 0.4", "unit": "nA"}, {"measurement": "Imax+IVM", "setting": "[3]; ATP after 3 µM IVM 4-6 min", "result": "4.1 ± 0.8", "unit": "nA"}, {"measurement": "A2 /(A1+A2)", "setting": "[3]; [7]", "result": "70 ± 2", "unit": "%"}, {"measurement": "τoff +IVM", "setting": "[3]; [8]", "result": "22 ± 3.0", "unit": "s"}, {"measurement": "EC50", "setting": "[3]; [9]", "result": "4.3 ± 2.1", "unit": "µM"}, {"measurement": "τdes", "setting": "[3]; weighted, 100 µM ATP 60 s", "result": "6.3 ± 0.2", "unit": "s"}, {"measurement": "τdes1", "setting": "[4]; [6]", "result": "0.9 ± 0.2", "unit": "s"}, {"measurement": "τdes2", "setting": "[4]; [6]", "result": "8.5 ± 3.6", "unit": "s"}, {"measurement": "Imax", "setting": "[4]; 100–1000 µM ATP", "result": "2.0 ± 0.5", "unit": "nA"}, {"measurement": "Imax+IVM", "setting": "[4]; ATP after 3 µM IVM 4-6 min", "result": "2.6 ± 0.6", "unit": "nA"}, {"measurement": "A2 /(A1+A2)", "setting": "[4]; [7]", "result": "65 ± 2", "unit": "%"}, {"measurement": "τoff +IVM", "setting": "[4]; [8]", "result": "24 ± 4.3", "unit": "s"}, {"measurement": "EC50", "setting": "[4]; [9]", "result": "7.1 ± 3", "unit": "µM"}, {"measurement": "τdes", "setting": "[4]; weighted, 100 µM ATP 60 s", "result": "6.0 ± 2.6", "unit": "s"}, {"measurement": "fold increase of EC50 for ATP in comparison to WT", "setting": "[5]", "result": 10, "unit": "x"}]}, {"smiles": "CC[C@H](C)[C@H]1O[C@]2(CC[C@@H]1C)C[C@@H]1C[C@@H](C/C=C(\\C)[C@@H](O[C@H]3C[C@H](OC)[C@@H](O[C@H]4C[C@H](OC)[C@@H](O)[C@H](C)O4)[C@H](C)O3)[C@@H](C)/C=C/C=C3\\CO[C@@H]4[C@H](O)C(C)=C[C@@H](C(=O)O1)[C@]34O)O2", "note": "[IVM, ivermectin]", "values": [{"measurement": "Fold incr. Imax", "setting": "[3]; [10]", "result": "2.1 ± 0.3", "unit": "fold"}, {"measurement": "Fold incr. Imax", "setting": "[4]; [10]", "result": "1.3 ± 0.4", "unit": "fold"}]}]}
